# Measured values reported in patent US7445765B2, “Radiopharmaceutical for diagnostic imaging containing a technetium-99m nitride heterocomplex” (Nihon Medi-Physics Co., Ltd., priority 2000, dated 2008).
# Assay: Biodistribution of the 99mTc(N) heterocomplexes in rats (organ uptake, heart accumulation, heart/lung and heart/liver ratios)
# Type: in vivo, female Sprague-Dawley rats
# Conditions: rats
# Experimental: The biodistribution was measured by using female Sprague-Dawley rats (SD rats) weighing 200 g to 250 g. Each of the ^99mTc(N) heterocomplexes purified in the manner described above was diluted with phosphate buffer (0.1 M, pH=7.4) to obtain a final solution having an ethanol content of 10%. After the SD rats were anesthetized with an intramuscular injection of a mixture of ketamine (80 mg/kg) and xilazine (19 mg/kg), the jugular vein of each rat was surgically exposed and 100 μL (300 to 370 kBq) of the solution containing each ^99mTc(N) heterocomplexes prepared in the manner described above was injected in the jugular vein. The rats (n=3) were sacrificed by cervical dislocation at different times post injection. The blood was withdrawn from the heart through a syringe and counted. It was assumed that the whole blood content was 6.5% of the total body weight. The organs were excised from the rats, washed with physiological saline, weighed, and counted in a NaI well counter.
# For comparison, Tables 19 and 20 show the results, obtained in the same manner as above, of measuring the biodistribution of (^99mTc) (MIBI) and (^99mTc) (Tf) which have been used as pharmaceuticals for diagnostic imaging for blood flow in myocardium.
# Tables 21 to 23 show data showing the variations with time of heart accumulation, heart/lung ratios and heart/liver ratios for the ^99mTc(N) heterocomplexes of the present invention.
smiles,measurement,setting,value
"[99Tc].[C-]#[N+]CC(C)(C)OC.[C-]#[N+]CC(C)(C)OC.[C-]#[N+]CC(C)(C)OC.[C-]#[N+]CC(C)(C)OC.[C-]#[N+]CC(C)(C)OC.[C-]#[N+]CC(C)(C)OC [(^99mTc) (MIBI), reference compound]","Biodistribution, Adrenal glands",0 min,2.80 ± 0.17 % ID/g
same,"Biodistribution, Blood",0 min,0.34 ± 0.07 % ID/g
same,"Biodistribution, Brain",0 min,0.26 ± 0.01 % ID/g
same,"Biodistribution, Heart",0 min,3.56 ± 0.22 % ID/g
same,"Biodistribution, Intestine",0 min,3.55 ± 0.37 % ID/g
same,"Biodistribution, Kidneys",0 min,9.23 ± 0.62 % ID/g
same,"Biodistribution, Liver",0 min,1.36 ± 0.12 % ID/g
same,"Biodistribution, Lungs",0 min,1.65 ± 0.08 % ID/g
same,"Biodistribution, Muscle",0 min,0.24 ± 0.04 % ID/g
same,"Biodistribution, Spleen",0 min,2.65 ± 0.26 % ID/g
same,"Biodistribution, Submaxillary glands",0 min,1.43 ± 0.41 % ID/g
same,"Biodistribution, Adrenal glands",2 min,1.60 ± 0.01 % ID/g
same,"Biodistribution, Blood",2 min,0.11 ± 0.01 % ID/g
same,"Biodistribution, Brain",2 min,0.04 ± 0.01 % ID/g
same,"Biodistribution, Heart",2 min,3.25 ± 0.17 % ID/g
same,"Biodistribution, Intestine",2 min,3.71 ± 0.01 % ID/g
same,"Biodistribution, Kidneys",2 min,10.12 ± 0.15 % ID/g
same,"Biodistribution, Liver",2 min,1.88 ± 0.08 % ID/g
same,"Biodistribution, Lungs",2 min,1.18 ± 0.13 % ID/g
same,"Biodistribution, Muscle",2 min,0.14 ± 0.00 % ID/g
same,"Biodistribution, Spleen",2 min,2.76 ± 0.66 % ID/g
same,"Biodistribution, Submaxillary glands",2 min,1.01 ± 0.23 % ID/g
same,"Biodistribution, Adrenal glands",10 min,3.28 ± 0.39 % ID/g
same,"Biodistribution, Blood",10 min,0.07 ± 0.01 % ID/g
same,"Biodistribution, Brain",10 min,0.05 ± 0.01 % ID/g
same,"Biodistribution, Heart",10 min,3.37 ± 0.45 % ID/g
same,"Biodistribution, Intestine",10 min,5.40 ± 0.33 % ID/g
same,"Biodistribution, Kidneys",10 min,11.45 ± 1.62 % ID/g
same,"Biodistribution, Liver",10 min,2.21 ± 0.27 % ID/g
same,"Biodistribution, Lungs",10 min,1.36 ± 0.31 % ID/g
same,"Biodistribution, Muscle",10 min,0.18 ± 0.01 % ID/g
same,"Biodistribution, Spleen",10 min,3.16 ± 0.62 % ID/g
same,"Biodistribution, Submaxillary glands",10 min,1.12 ± 0.12 % ID/g
same,"Biodistribution, Adrenal glands",20 min,3.05 ± 0.04 % ID/g
same,"Biodistribution, Blood",20 min,0.05 ± 0.01 % ID/g
same,"Biodistribution, Brain",20 min,0.04 ± 0.01 % ID/g
same,"Biodistribution, Heart",20 min,3.16 ± 0.22 % ID/g
same,"Biodistribution, Intestine",20 min,4.90 ± 0.23 % ID/g
same,"Biodistribution, Kidneys",20 min,8.14 ± 1.30 % ID/g
same,"Biodistribution, Liver",20 min,1.98 ± 0.60 % ID/g
same,"Biodistribution, Lungs",20 min,0.99 ± 0.11 % ID/g
same,"Biodistribution, Muscle",20 min,0.15 ± 0.05 % ID/g
same,"Biodistribution, Spleen",20 min,2.11 ± 0.18 % ID/g
same,"Biodistribution, Submaxillary glands",20 min,1.07 ± 0.04 % ID/g
same,"Biodistribution, Adrenal glands",30 min,3.49 ± 0.67 % ID/g
same,"Biodistribution, Blood",30 min,0.05 ± 0.01 % ID/g
same,"Biodistribution, Brain",30 min,0.04 ± 0.02 % ID/g
same,"Biodistribution, Heart",30 min,3.70 ± 0.04 % ID/g
same,"Biodistribution, Intestine",30 min,5.42 ± 0.05 % ID/g
same,"Biodistribution, Kidneys",30 min,6.46 ± 0.11 % ID/g
same,"Biodistribution, Liver",30 min,1.37 ± 0.22 % ID/g
same,"Biodistribution, Lungs",30 min,0.72 ± 0.01 % ID/g
same,"Biodistribution, Muscle",30 min,0.17 ± 0.05 % ID/g
same,"Biodistribution, Spleen",30 min,2.89 ± 0.29 % ID/g
same,"Biodistribution, Submaxillary glands",30 min,1.08 ± 0.09 % ID/g
same,"Biodistribution, Adrenal glands",60 min,3.50 ± 0.60 % ID/g
same,"Biodistribution, Blood",60 min,0.03 ± 0.00 % ID/g
same,"Biodistribution, Brain",60 min,0.04 ± 0.00 % ID/g
same,"Biodistribution, Heart",60 min,3.18 ± 0.17 % ID/g
same,"Biodistribution, Intestine",60 min,6.49 ± 1.43 % ID/g
same,"Biodistribution, Kidneys",60 min,4.42 ± 0.11 % ID/g
same,"Biodistribution, Liver",60 min,1.57 ± 0.11 % ID/g
same,"Biodistribution, Lungs",60 min,0.47 ± 0.24 % ID/g
same,"Biodistribution, Muscle",60 min,0.18 ± 0.01 % ID/g
same,"Biodistribution, Spleen",60 min,1.88 ± 0.15 % ID/g
same,"Biodistribution, Submaxillary glands",60 min,1.17 ± 0.05 % ID/g
same,"Biodistribution, Adrenal glands",120 min,2.43 ± 0.13 % ID/g
same,"Biodistribution, Blood",120 min,0.02 ± 0.00 % ID/g
same,"Biodistribution, Brain",120 min,0.03 ± 0.00 % ID/g
same,"Biodistribution, Heart",120 min,3.04 ± 0.14 % ID/g
same,"Biodistribution, Intestine",120 min,4.15 ± 1.02 % ID/g
same,"Biodistribution, Kidneys",120 min,3.49 ± 0.05 % ID/g
same,"Biodistribution, Liver",120 min,1.02 ± 0.23 % ID/g
same,"Biodistribution, Lungs",120 min,0.47 ± 0.06 % ID/g
same,"Biodistribution, Muscle",120 min,0.28 ± 0.05 % ID/g
same,"Biodistribution, Spleen",120 min,1.23 ± 0.18 % ID/g
same,"Biodistribution, Submaxillary glands",120 min,1.19 ± 0.05 % ID/g
CCOCCC[P]1(CCCOCC)CCN(CCOCC)CC[P](CCCOCC)(CCCOCC)[99Tc+]12(#[N])[S]C(N(CCOCC)CCOCC)=[S]2 [PNP6•DBODC],"Biodistribution, Adrenal glands",0 min,2.60 % dose/g
same,"Biodistribution, Blood",0 min,1.42 % dose/g
same,"Biodistribution, Brain",0 min,0.18 % dose/g
same,"Biodistribution, Heart",0 min,2.26 % dose/g
same,"Biodistribution, Intestine",0 min,2.91 % dose/g
same,"Biodistribution, Kidneys",0 min,5.56 % dose/g
same,"Biodistribution, Liver",0 min,3.59 % dose/g
same,"Biodistribution, Lungs",0 min,3.87 % dose/g
same,"Biodistribution, Muscle",0 min,0.06 % dose/g
same,"Biodistribution, Spleen",0 min,1.68 % dose/g
same,"Biodistribution, Submax. glands",0 min,1.17 % dose/g
same,"Biodistribution, Adrenal glands",2 min,3.49 % dose/g
same,"Biodistribution, Blood",2 min,0.17 % dose/g
same,"Biodistribution, Brain",2 min,0.03 % dose/g
same,"Biodistribution, Heart",2 min,1.241 % dose/g
same,"Biodistribution, Intestine",2 min,3.54 % dose/g
same,"Biodistribution, Kidneys",2 min,9.57 % dose/g
same,"Biodistribution, Liver",2 min,5.94 % dose/g
same,"Biodistribution, Lungs",2 min,1.25 % dose/g
same,"Biodistribution, Muscle",2 min,0.17 % dose/g
same,"Biodistribution, Spleen",2 min,3.85 % dose/g
same,"Biodistribution, Submax. glands",2 min,1.26 % dose/g
same,"Biodistribution, Adrenal glands",10 min,4.48 % dose/g
same,"Biodistribution, Blood",10 min,0.06 % dose/g
same,"Biodistribution, Brain",10 min,0.03 % dose/g
same,"Biodistribution, Heart",10 min,1.39 % dose/g
same,"Biodistribution, Intestine",10 min,6.21 % dose/g
same,"Biodistribution, Kidneys",10 min,9.80 % dose/g
same,"Biodistribution, Liver",10 min,7.71 % dose/g
same,"Biodistribution, Lungs",10 min,1.10 % dose/g
same,"Biodistribution, Muscle",10 min,0.16 % dose/g
same,"Biodistribution, Spleen",10 min,4.00 % dose/g
same,"Biodistribution, Submax. glands",10 min,1.27 % dose/g
same,"Biodistribution, Adrenal glands",20 min,3.19 % dose/g
same,"Biodistribution, Blood",20 min,0.03 % dose/g
same,"Biodistribution, Brain",20 min,0.03 % dose/g
same,"Biodistribution, Heart",20 min,1.18 % dose/g
same,"Biodistribution, Intestine",20 min,8.54 % dose/g
same,"Biodistribution, Kidneys",20 min,8.18 % dose/g
same,"Biodistribution, Liver",20 min,6.55 % dose/g
same,"Biodistribution, Lungs",20 min,0.80 % dose/g
same,"Biodistribution, Muscle",20 min,0.09 % dose/g
same,"Biodistribution, Spleen",20 min,3.13 % dose/g
same,"Biodistribution, Submax. glands",20 min,1.03 % dose/g
same,"Biodistribution, Adrenal glands",30 min,3.08 % dose/g
same,"Biodistribution, Blood",30 min,0.05 % dose/g
same,"Biodistribution, Brain",30 min,0.02 % dose/g
same,"Biodistribution, Heart",30 min,1.05 % dose/g
same,"Biodistribution, Intestine",30 min,7.75 % dose/g
same,"Biodistribution, Kidneys",30 min,7.52 % dose/g
same,"Biodistribution, Liver",30 min,4.66 % dose/g
same,"Biodistribution, Lungs",30 min,0.60 % dose/g
same,"Biodistribution, Muscle",30 min,0.11 % dose/g
same,"Biodistribution, Spleen",30 min,2.43 % dose/g
same,"Biodistribution, Submax. glands",30 min,1.08 % dose/g
same,"Biodistribution, Adrenal glands",60 min,3.49 % dose/g
same,"Biodistribution, Blood",60 min,0.02 % dose/g
same,"Biodistribution, Brain",60 min,0.01 % dose/g
same,"Biodistribution, Heart",60 min,1.10 % dose/g
same,"Biodistribution, Intestine",60 min,8.37 % dose/g
same,"Biodistribution, Kidneys",60 min,6.60 % dose/g
same,"Biodistribution, Liver",60 min,3.55 % dose/g
same,"Biodistribution, Lungs",60 min,0.48 % dose/g
same,"Biodistribution, Muscle",60 min,0.12 % dose/g
same,"Biodistribution, Spleen",60 min,2.64 % dose/g
same,"Biodistribution, Submax. glands",60 min,1.30 % dose/g
same,"Biodistribution, Adrenal glands",120 min,3.47 % dose/g
same,"Biodistribution, Blood",120 min,0.02 % dose/g
same,"Biodistribution, Brain",120 min,0.01 % dose/g
same,"Biodistribution, Heart",120 min,1.29 % dose/g
same,"Biodistribution, Intestine",120 min,9.70 % dose/g
same,"Biodistribution, Kidneys",120 min,8.83 % dose/g
same,"Biodistribution, Liver",120 min,2.55 % dose/g
same,"Biodistribution, Lungs",120 min,0.33 % dose/g
same,"Biodistribution, Muscle",120 min,0.14 % dose/g
same,"Biodistribution, Spleen",120 min,2.02 % dose/g
same,"Biodistribution, Submax. glands",120 min,1.36 % dose/g
CCOCCN1CC[P](CCCOC)(CCCOC)[99Tc+]2(#[N])([S]C(N(CCOCC)CCOCC)=[S]2)[P](CCCOC)(CCCOC)CC1 [[^99mTc(N) (PNP5) (DBODC)^+]],Heart/liver ratio in biodistribution,0 min,6.11
same,Heart/lung ratio in biodistribution,0 min,0.76
same,Heart/liver ratio in biodistribution,2 min,1.48
same,Heart/lung ratio in biodistribution,2 min,3.98
same,Heart/liver ratio in biodistribution,10 min,2.29
same,Heart/lung ratio in biodistribution,10 min,4.19
same,Heart/liver ratio in biodistribution,20 min,3.78
same,Heart/lung ratio in biodistribution,20 min,6.37
same,Heart/liver ratio in biodistribution,30 min,5.18
same,Heart/lung ratio in biodistribution,30 min,5.83
same,Heart/liver ratio in biodistribution,60 min,18.8
same,Heart/lung ratio in biodistribution,60 min,8.17
same,Heart/liver ratio in biodistribution,120 min,33.1
same,Heart/lung ratio in biodistribution,120 min,13.24
